Experimental data as given in patent publication US6537754B1, “Association of kinesin with sensitivity to chemotherapeutic drugs” (Board of Trustees of the University of Illinois, priority 1990, dated 2003).
Starred links: 1 amine or outer side, 2 acyl side, 3 side chain; linkers in the order of their positions; H or OH if unused. Positions of bridges follow the written chain, without caps; N, C: chain ends. Non-standard residues stand in square brackets, D forms with d. Residues, ends and D or L forms follow the SMILES beside them. Chains are numbered I, II in the order given. Actinocin(9to1) = Cc1c2oc3c(C)ccc(C(=O)[*:1])c3nc-2c(C(=O)[*:2])c(N)c1=O; NMeV = CN[C@H](C(=O)O)C(C)C; Sar = CNCC(=O)O

What was measured:
NIH 3T3 cells [1] = assay: long-term growth inhibition assays (cytostatic and cytotoxic effects), cells carrying anti-khcs GSE vs control; format: cell-based, mouse; settings: for sensitivity of anti-khcs GSE cells to the drug (surviving cells as percentage of growth without drug): 2x10^4 cells per dish, five days in drug, FIGS. 12A and 12B; for resistance or sensitivity of GSE-carrying cells to the drug, long-term assay: four days in drug, then two or six days without drug, anti-khcs cells vs control
Description: Cells were incubated with the drugs for 4 days, followed by 2 or […] in drug-free media, as indicated. Cell growth, presented in arbitrary units, was evaluated by methylene blue staining.
To further characterize the nature of drug resistance conferred by anti-khcs, the above-described short-term growth inhibition assays were followed by long-term growth inhibition assays which measured both the cytostatic and the cytotoxic effects of different drugs. These assays were carried out by incubating the cells for four days in the presence of the drugs, followed by either two or six days in the absence of the drug, to allow for programmed cell death, which is frequently associated with recovery from drug-induced inhibition (Kung et al., 1990, Cancer Res. 50: 7307-7317).
Thus, in the experiment shown in FIGS. 12A and 12B, NIH 3T3 cells carrying the anti-khcs GSE and control cells without the GSE were plated at a density of 2×10^4 per culture dish and grown for five days in concentrations of either colchicine or vinblastine. The cells were then fixed and stained, and the number of surviving cells determined and shown as a percentage of cell growth in the absence of drug.

NIH 3T3 cells [2] = assay: dynamics of cell growth during and after drug treatment, anti-khcs GSE cells vs control; format: cell-based, mouse; settings: for effect of the drug in continuous presence / cell death after removal of the drug: 250 ng/mL etoposide, 20 ng/mL camptothecin, 40 ng/mL colchicine; for effect of anti-khcs GSE on the growth-inhibitory effect of the drug: 5 or 11 days continuous exposure, anti-khcs cells vs control; for cell death after removal of the drug: control cells; for cell death after removal of the drug / effect of anti-khcs GSE on cell death after release from the drug: drug removed after 5 days; for overall change in drug resistance conferred by anti-khcs GSE, release vs continuous exposure: long-term, 11 days
Description: Cell growth was measured as described for FIGS. 12A and 12B. Cells were plated and one day later (indicated by the first arrow) the indicated drugs were added at concentrations as described. Four days later (indicated by the second arrow), the drugs were removed from some of the plates. Solid lines indicate cell growth in the continuous presence of the drug, and broken lines indicate cell growth after removal of the drug.
In these experiments (shown in FIGS. 13A through 13D), NIH 3T3 cells were treated with the corresponding drugs for 5 days, and then incubated for additional 6 days either in the presence or in the absence of the drug. […] After 11 days of drug exposure the total cell number in the etoposide- or camptothecin-treated populations of control cells was a little lower than after 5 days of drug exposure, but in the colchicine-treated control cell population a slow cell growth was still detectable. In the experiments where the drug was removed after 5 days, cell growth was initially activated for all three drugs.
The expression of the anti-khcs GSE had different effects on the growth inhibition and recovery-associated cell death induced by these drugs.

NIH 3T3 cells [3] = assay: short-term (4-day) growth inhibition assay, methylene blue staining, cells carrying anti-khcs GSE vs insert-free vector control; format: cell-based, mouse; settings: NIH 3T3 infected with anti-khcs virus vs insert-free vector; 4 days drug exposure
Description: Drug concentrations are given in ng/mL.
A 1:1 mixture of ecotropic and amphotropic packaging cells was transfected with retroviral vector pLNCX carrying the anti-khcs GSE using a standard calcium phosphate procedure. […] This virus-containing supernatant was used to infect NIH 3T3 cells, 10 times with 12 hour intervals. Control cells were infected in parallel with the insert-free vector virus obtained by the same procedure. […] DNA from the infected cells was analyzyed by Southern blot hybridization with a virus-specific probe.
The infected cell population described in Example 7 were analyzed for resistance to several anticancer drugs by a growth inhibition assay. For this assay, 10^4 cells per well were plated in 12-well plated and exposed to increasing concentrations of different drugs for 4 days. Relative cell numbers were measured by the methylene blue staining assay (Perry et al., 1992, Mutation Res. 286: 189-197). […] All of these drugs are known to induce DNA damage, albeit by different mechanism.

[4] = tested on: primary mouse embryo fibroblasts (MEF); assay: life span / immortalization of senescent primary fibroblasts after infection with GSE virus; format: cell-based
Description: The virus carrying the anti-khcs GSE was treated for the ability to increase the life span of primary mouse embryo fibroblasts (MEF). MEF were prepared from 10 day old mouse embryos by a standard trypsinization procedure and senescent cells were frozen at different passages prior to crisis. Senescent MEF, two weeks before crisis, were infected with recombinant retroviruses carrying LNCX vector either without an insert or with anti-khcs.

NIH 3T3 cells [5] = assay: etoposide selection after retroviral transduction of GSEs; format: cell-based, mouse; settings: recloned proviral inserts in LNCX vector
Description: This selection was carried out directly on virus-producing packaging cells, in the expectation that cells whose resistant phenotype is caused by the GSE expression will produce virus particles carrying such a GSE. The mixture of amphotropic and ecotropic packaging cells was transfected with the cDNA library in the LNCX vector, prepared according to Example 1, and the virus was allowed to spread through the population for 9 days.
The proviral inserts contained in the etoposide-selected NIH 3T3 cells were analyzed by PCR. […] Individual PCR-amplified fragments were recloned into the LNCX vector in the same position and orientation as in the original plasmid, as illustrated in FIG. 4C. […] These GSEs wee named anti-khcs, VPA and VP9-11.

NIH 3T3 cells [6] = assay: growth parameters of multiply-infected cells; format: cell-based, mouse; settings: multiple integrated provirus copies; normalised after several passages
Text: A 1:1 mixture of ecotropic and amphotropic packaging cells was transfected with retroviral vector pLNCX carrying the anti-khcs GSE using a standard calcium phosphate procedure. Two weeks later, the virus titer, as measured by the formation of G418- resistance NIH 3T3 colonies, reached >10^6 infectious units per mL as a result of “ping-pong” infection (see Bodine et al., 1990, Proc. Natl. Acad. Sci. USA 87: 3738-3742). This virus-containing supernatant was used to infect NIH 3T3 cells, 10 times with 12 hour intervals. Control cells were infected in parallel with the insert-free vector virus obtained by the same procedure. […] DNA from the infected cells was analyzyed by Southern blot hybridization with a virus-specific probe.
At this stage, the cells were frozen and used for the experiments described below.

NIH 3T3 cells [7] = assay: etoposide resistance with GSE under IPTG-inducible promoter; format: cell-based, mouse; settings: 5 mM IPTG; IPTG-dependent; vs insert-free vector
Text: The components of this system include an enhancer-dependent promoter, combined in cis with multiple repeats of the bacterial lac operator, and a gene expressing LAP265, an artificial regulatory protein derived from the lac repressor and a mammalian transcriptional activator. The anti-khcs GSE was cloned into the plasmid pX6.CLN, which contains the inducible promoter used by Baim et al., supra (a gift of Dr. T. Shenk) which expresses the inserts from an enhancerless SV40 early gene promoter supplemented with 21 repeats of the lac operator sequence. The resulting plasmid, which contains no selectable markers, was co-transfected into NIH 3T3 cells together with the LNCX plasmid carrying the neo gene.

[8] = tested on: primary human fibroblasts; assay: life span of primary human skin fibroblasts after infection with GSE virus; format: cell-based
Description: Primary human fibroblasts, derived from human skin, were obtained from the Aging Cell Repository of the National Institutes of Aging. The cells were grown in DMEM with 20% fetal calf serum supplemented with twice the concentration of amino acids and vitamins normally used to supplement normal human skin fibroblast growth in culture. Cells at the fifth passage were infected with either the control pLNCX virus or the virus carrying mouse anti-khcs GSE (produced as described above in Example 3).

`COc1cc2c(c(OC)c1OC)-c1ccc(OC)c(=O)cc1[C@@H](NC(C)=O)CC2` [colchicine] was tested, and the “sensitivity of anti-khcs GSE cells to the drug (surviving cells as percentage of growth without drug)” value (NIH 3T3 cells [1]) was “hypersensitivity”, the “resistance or sensitivity of GSE-carrying cells to the drug, long-term assay” value (shortened to “resistance or sensitivity”) (NIH 3T3 cells [1]) was “hypersensitive” and the “effect of the drug in continuous presence” value (NIH 3T3 cells [2]) was “growth inhibition but little detectable cell death”. For the same molecule, the “effect of anti-khcs GSE on the growth-inhibitory effect of the drug” value (NIH 3T3 cells [2]) was “more susceptible to the growth-inhibitory effect”, the “cell death after removal of the drug” value (NIH 3T3 cells [2]) was “only limited cell death” and the “change in resistance to the cytostatic effects of the drug induced by anti-khcs GSE” value (NIH 3T3 cells [3]) was “no increase in resistance was observed”.

With `COc1cc([C@@H]2c3cc4c(cc3[C@@H](O[C@@H]3O[C@@H]5CO[C@@H](C)O[C@H]5[C@H](O)[C@H]3O)[C@H]3COC(=O)[C@H]23)OCO4)cc(OC)c1O` [etoposide] the “resistance or sensitivity” value (NIH 3T3 cells [1]) was “resistant”, the “effect of the drug in continuous presence” value (NIH 3T3 cells [2]) was “growth inhibition but little detectable cell death” and the “effect of anti-khcs GSE on the growth-inhibitory effect of the drug” value (NIH 3T3 cells [2]) was “decreased the growth-inhibitory effect of the drug to the same, relatively small extent”. The “cell death after removal of the drug” value (NIH 3T3 cells [2]) was “extensive cell death”, the “effect of anti-khcs GSE on cell death after release from the drug” value (NIH 3T3 cells [2]) was “decreased the amount of cell death” and the “overall change in drug resistance conferred by anti-khcs GSE, release vs continuous exposure” value (NIH 3T3 cells [2]) was “much more pronounced after release from the drug”.

`CC[C@]1(O)C[C@@H]2CN(CCc3c([nH]c4ccccc34)[C@@](C(=O)OC)(c3cc4c(cc3OC)N(C)[C@H]3[C@@](O)(C(=O)OC)[C@H](OC(C)=O)[C@]5(CC)C=CCN6CC[C@]43[C@@H]65)C2)C1` [vinblastine] was tested, and the “sensitivity of anti-khcs GSE cells to the drug (surviving cells as percentage of growth without drug)” value (NIH 3T3 cells [1]) was “hypersensitivity” and the “resistance or sensitivity” value (NIH 3T3 cells [1]) was “hypersensitive”.

With `COc1cccc2c1C(=O)c1c(O)c3c(c(O)c1C2=O)C[C@@](O)(C(=O)CO)C[C@@H]3O[C@H]1C[C@H](N)[C@H](O)[C@H](C)O1` [Adriamycin, doxorubicin] the “resistance or sensitivity” value (NIH 3T3 cells [1]) was “resistant”.

`CC[C@@]1(O)C(=O)OCc2c1cc1n(c2=O)Cc2cc3ccccc3nc2-1` [camptothecin] was tested, and the “effect of the drug in continuous presence” value (NIH 3T3 cells [2]) was “growth inhibition but little detectable cell death”, the “effect of anti-khcs GSE on the growth-inhibitory effect of the drug” value (NIH 3T3 cells [2]) was “small decrease of the growth-inhibitory effect” and the “cell death after removal of the drug” value (NIH 3T3 cells [2]) was “extensive cell death”. The “effect of anti-khcs GSE on cell death after release from the drug” value (NIH 3T3 cells [2]) was “slight increase in cell death” and the “overall change in drug resistance conferred by anti-khcs GSE, release vs continuous exposure” value (NIH 3T3 cells [2]) was “no significant long-term difference”.

`Cc1c2oc3c(C)ccc(C(=O)N[C@@H]4C(=O)N[C@H](C(C)C)C(=O)N5CCC[C@H]5C(=O)N(C)CC(=O)N(C)[C@@H](C(C)C)C(=O)O[C@@H]4C)c3nc-2c(C(=O)N[C@@H]2C(=O)N[C@H](C(C)C)C(=O)N3CCC[C@H]3C(=O)N(C)CC(=O)N(C)[C@@H](C(C)C)C(=O)O[C@@H]2C)c(N)c1=O` [actinomycin D] (I: T[dV]P[Sar][NMeV] / II: T[dV]P[Sar][NMeV]; ester I:1-I:C, II:1-II:C; linker I:N-II:N via Actinocin(9to1)) was tested, and the “change in resistance to the cytostatic effects of the drug induced by anti-khcs GSE” value (NIH 3T3 cells [3]) was “no increase in resistance was observed”.

B1: anti-khcs: genetic suppressor element encoding antisense RNA for mouse kinesin heavy chain gene khcs (SEQ.ID.No.:3), in LNCX retroviral vector (nucleic acid)
antisense: CTTGATCCCTTCTGGTTGATGCCAGAAGCTCTTCCTGATCCAGCATTTGTATCTTCAATTTCTCTACCAATTGGCTTTGTTGGTTAATCTCTTCATCCTTGTCATCAAGTTGTTTATACAATTTAGCAAGTTCTTCTTCACACTTTCTTCTTTCAGCATCGGTAAAACTACCAGCCATTCCGACTGCAGCAGCTGGTTTATCACTGGTAATAGCAATATCTTTATCCGCTGTGAAGGCTTCCAAATTAGCTTTCTCTTTGTCAAACTGCTCATCAATAGGCACTGTCTCCCCGTTACGCCAACGGTTTAGCTCGTTTTCCAGCCACT
modifications: in LNCX retroviral vector
B1 was tested, and the “features of neoplastic transformation in post-crisis cells” value ([4]; microscopic) was “no microscopically visible features of neoplastic transformation”, the “proportion of cells surviving the crisis” value ([4]; relative to uninfected MEF or control LNCX virus, two weeks after crisis) was “great increase” and the “ability to confer etoposide resistance after retroviral transduction” value (NIH 3T3 cells [5]) was “induce etoposide resistance”. The “growth rate and plating efficiency of freshly-obtained multiply-infected cells” value (NIH 3T3 cells [6]) was “decreased growth rate and plating efficiency”, the “etoposide resistance of transfectants” value (NIH 3T3 cells [7]) was “clearly increased etoposide resistance” and the additional passages survived ([8]; after control cells went into crisis) was “at least five”. For the same molecule, the “growth when control cells went into crisis” value ([8]; infected at fifth passage, four passages later) was “continued to grow”.
